Test in all cases: Acyl-CoA oxidase assay (hydrogen peroxide colorimetry at 545 nm), Km value
Data set [1] has as its system acyl-CoA oxidase of Arthrobacter sp. B-0720. It counts as biochemical. The settings on record: substrate of the assay method: palmitoyl-CoA; 37° C.; phosphate buffer pH 7.0 or tris-HCl buffer pH 8.0. Here is the method: (§1) Enzyme solution (10 μl) is added to a reaction mixture (0.5 ml) consisting of 0.2 M phosphate buffer (pH 7.0) or 0.2 M tris-HCl buffer (pH 8.0) (0.1 ml), 5 mM 4-aminoantipyrine (0.05 ml), 3 mM diethyl m-toludine (0.05 ml), peroxidase (0.5 mg/ml, 0.05 ml), 25 mM palmitoyl-CoA (0.02 ml) and distilled water (0.23 ml) and the mixture is incubated at 37° C. for 10 minutes. 4 M urea (0.5 ml) is added to stop the reaction, and 1% by weight of Triton X-100 (2 ml) is added thereto and the generated hydrogen peroxide is measured at 545 nm by colorimetry.
(§2) A unit (1 unit, 1 U) of enzyme activity is defined as the activity of enzyme which generates 1μ mole of hydrogen peroxide per minute.

Data set [2] concerns acyl-CoA oxidase of Aspergillus candidus M-4815. The class given is biochemical. The settings on record: substrate of the assay method: palmitoyl-CoA; 37° C.; phosphate buffer pH 7.0 or tris-HCl buffer pH 8.0. Here is the method:
as §1, §2

Data set [3] concerns acyl-CoA oxidase of Cladosporium resinae IFO 6367. The class given is biochemical. As to conditions: substrate of the assay method: palmitoyl-CoA; 37° C.; phosphate buffer pH 7.0 or tris-HCl buffer pH 8.0. As to the method:
as §1, §2

Data set [4] has as its system acyl-CoA oxidase of Macrophomina phaseoli ATCC 14383. It counts as biochemical. As to conditions: substrate of the assay method: palmitoyl-CoA; 37° C.; phosphate buffer pH 7.0 or tris-HCl buffer pH 8.0. Here is the method:
as §1, §2

For data set [5], the system named is acyl-CoA oxidase of Monascus sp. M-4800. The class given is biochemical. As to conditions: substrate of the assay method: palmitoyl-CoA; 37° C.; phosphate buffer pH 7.0 or tris-HCl buffer pH 8.0. As to the method:
as §1, §2

Substrate in data set [6]: CCCCCCCCCCCCCCCC(=O)SCCNC(=O)CCNC(=O)[C@H](O)C(C)(C)COP(=O)(O)OP(=O)(O)OC[C@H]1O[C@@H](n2cnc3c(N)ncnc32)[C@H](O)[C@@H]1OP(=O)(O)O
The class given is biochemical, Saccharomyces cerevisiae. The settings on record: other: substrate of the assay method: palmitoyl-CoA, 37° C., phosphate buffer pH 7.0 or tris-HCl buffer pH 8.0. As to the method:
as §1, §2

The record followed here is patent publication US4346173A, “Process for the production of acyl-Coenzyme A oxidase” (Toyo Jozo Kabushiki Kaisha, priority 1979, dated 1982).

As usually defined, the Km is the substrate concentration at which the rate is half of its maximum. Regarding `CCCCCCCCCCCCCCCC(=O)SCCNC(=O)CCNC(=O)[C@H](O)C(C)(C)COP(=O)(O)OP(=O)(O)OC[C@H]1O[C@@H](n2cnc3c(N)ncnc32)[C@H](O)[C@@H]1OP(=O)(O)O` [palmitoyl-CoA], the Km came to 130 µM in data set [1]; 110 µM in data set [2]; 120 µM in data set [3]; 87 µM in data set [4]; 150 µM in data set [5].

B1: acyl-CoA oxidase of Saccharomyces cerevisiae (strain Y 0036) (Saccharomyces cerevisiae S288C) (protein)
chain: MTRRTTINPDSVVLNPQKFIQKERADSKIKVDQVNTFLESSPERRTLTHALIDQIVNDPILKTDTDYYDAKKMQEREITAKKIARLASYMEHDIKTVRKHFRDTDLMKELQANDPDKASPLTNKDLFIFDKRLSLVANIDPQLGTRVGVHLGLFGNCIKGNGTDEQIRYWLQERGATLMKGIYGCFAMTELGHGSNVAQLQTRAVYDKQNDTFVIDTPDLTATKWWIGGAAHSATHAAVYARLIVEGKDYGVKTFVVPLRDPSTFQLLAGVSIGDIGAKMGRDGIDNGWIQFRNVVIPREFMLSRFTKVVRSPDGSVTVKTEPQLDQISGYSALLSGRVNMVMDSFRFGSKFATIAVRYAVGRQQFAPRKGLSETQLIDYPLHQYRVLPQLCVPYLVSPVAFKLMDNYYSTLDELYNASSSAYKAALVTVSKKLKNLFIDSASLKATNTWLIATLIDELRQTCGGHGYSQYNGFGKGYDDWVVQCTWEGDNNVLSLTSAKSILKKFIDSATKGRFDNTLDVDSFSYLKPQYIGSVVSGEIKSGLKELGDYTEIWSITLIKLLAHIGTLVEKSRSIDSVSKLLVLVSKFHALRCMLKTYYDKLNSRDSHISDEITKESMWNVYKLFSLYFIDKHSGEFQQFKIFTPDQISKVVQPQLLALLPIVRKDCIGLTDSFELPDAMLNSPIGYFDGDIYHNYFNEVCRNNPVEADGAGKPSYHALLSSMLGRGFEFDQKLGGAANAEILSKINK
notes: endogenous in cells; host or cells: Saccharomyces cerevisiae Y 0036 (FERM-P No. 5174; enzyme of the producing strain itself)
With B1, in data set [6], the Km came to 500 µM.
